From PubChem BioAssay (NCI)
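Grown in 96-well plates, cells were treated for 48 hours with each compound at five concentrations. Insufficient inhibition: endpoint recorded as highest concentration tested. TGI denotes the concentration required for complete inhibition of growth.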

How the values were obtained:
Assay in all cases: NCI tumour cell line growth inhibition, 48 h
KM12 colon = test system: KM12 colon
SF-295 CNS = test system: SF-295 CNS
HOP-62 NSCLC = test system: HOP-62 NSCLC
NCI/ADR-RES ovarian = test system: NCI/ADR-RES ovarian
MCF7 breast = test system: MCF7 breast
CCRF-CEM leukemia = test system: CCRF-CEM leukemia
PC-3 prostate = test system: PC-3 prostate
OVCAR-5 ovarian = test system: OVCAR-5 ovarian
COLO 205 colon = test system: COLO 205 colon
SNB-75 CNS = test system: SNB-75 CNS
SK-MEL-28 melanoma = test system: SK-MEL-28 melanoma
SK-MEL-5 melanoma = test system: SK-MEL-5 melanoma
EKVX NSCLC = test system: EKVX NSCLC
HOP-92 NSCLC = test system: HOP-92 NSCLC
UACC-62 melanoma = test system: UACC-62 melanoma
MDA-MB-231 breast = test system: MDA-MB-231 breast
NCI-H460 lung = test system: NCI-H460 lung
NCI-H226 lung = test system: NCI-H226 lung
MALME-3M melanoma = test system: MALME-3M melanoma
HS 578T breast = test system: HS 578T breast
OVCAR-4 ovarian = test system: OVCAR-4 ovarian
MDA-N = test system: MDA-N
DU-145 prostate = test system: DU-145 prostate
SR leukemia = test system: SR leukemia
BT-549 breast = test system: BT-549 breast
NCI-H522 lung = test system: NCI-H522 lung
HT29 colon = test system: HT29 colon
T-47D breast = test system: T-47D breast
CAKI-1 renal = test system: CAKI-1 renal
TK-10 renal = test system: TK-10 renal
MDA-MB-435 = test system: MDA-MB-435
A498 renal = test system: A498 renal
A549 NSCLC = test system: A549 NSCLC
HL-60(TB) leukemia = test system: HL-60(TB) leukemia
SK-MEL-2 melanoma = test system: SK-MEL-2 melanoma
NCI-H23 lung = test system: NCI-H23 lung
SNB-19 CNS = test system: SNB-19 CNS
HCC-2998 colon = test system: HCC-2998 colon
786-0 renal = test system: 786-0 renal
SK-OV-3 ovarian = test system: SK-OV-3 ovarian
K-562 leukemia = test system: K-562 leukemia
UO-31 renal = test system: UO-31 renal
HCT-116 colon = test system: HCT-116 colon
OVCAR-8 ovarian = test system: OVCAR-8 ovarian
MOLT-4 leukemia = test system: MOLT-4 leukemia
M14 melanoma = test system: M14 melanoma
UACC-257 melanoma = test system: UACC-257 melanoma
HCT-15 colon = test system: HCT-15 colon
SF-268 CNS = test system: SF-268 CNS
SW-620 colon = test system: SW-620 colon
IGROV1 ovarian = test system: IGROV1 ovarian
SF-539 CNS = test system: SF-539 CNS
OVCAR-3 ovarian = test system: OVCAR-3 ovarian
ACHN renal = test system: ACHN renal
RPMI-8226 leukemia = test system: RPMI-8226 leukemia
U251 CNS = test system: U251 CNS
SN12C renal = test system: SN12C renal
RXF 393 renal = test system: RXF 393 renal
LOX IMVI melanoma = test system: LOX IMVI melanoma

Cc1nc2c(nc1C)-c1c(c3c(n1Cc1ccccc1)C(=O)CCC3)C(=O)C2=O
TGI (KM12 colon): 4.64 µM
TGI (SF-295 CNS): 71.1 µM
TGI (HOP-62 NSCLC): > 100 µM
TGI (NCI/ADR-RES ovarian): > 100 µM
TGI (MCF7 breast): 5.39 µM
TGI (CCRF-CEM leukemia): > 100 µM
TGI (PC-3 prostate): 29.4 µM
TGI (OVCAR-5 ovarian): > 100 µM
TGI (COLO 205 colon): > 100 µM
TGI (SNB-75 CNS): 6.56 µM
TGI (SK-MEL-28 melanoma): 4.18 µM
TGI (SK-MEL-5 melanoma): 24.6 µM
TGI (EKVX NSCLC): > 100 µM
TGI (HOP-92 NSCLC): 90.3 µM
TGI (UACC-62 melanoma): 50.9 µM
TGI (MDA-MB-231 breast): > 100 µM
TGI (NCI-H460 lung): > 100 µM
TGI (NCI-H226 lung): 48.4 µM
TGI (MALME-3M melanoma): 14.2 µM
TGI (HS 578T breast): 7.99 µM
TGI (OVCAR-4 ovarian): 3.59 µM
TGI (MDA-N): 4.82 µM
TGI (DU-145 prostate): 88.8 µM
TGI (SR leukemia): 6.36 µM
TGI (BT-549 breast): 5.84 µM
TGI (NCI-H522 lung): 7.28 µM
TGI (HT29 colon): 23.9 µM
TGI (T-47D breast): > 100 µM
TGI (CAKI-1 renal): 5.32 µM
TGI (TK-10 renal): 38.1 µM
TGI (MDA-MB-435): 5.98 µM
TGI (A498 renal): 38 µM
TGI (A549 NSCLC): > 100 µM
TGI (HL-60(TB) leukemia): 97.7 µM
TGI (SK-MEL-2 melanoma): 31.7 µM
TGI (NCI-H23 lung): > 100 µM
TGI (SNB-19 CNS): 28.8 µM
TGI (HCC-2998 colon): 5.49 µM
TGI (786-0 renal): > 100 µM
TGI (SK-OV-3 ovarian): > 100 µM
TGI (K-562 leukemia): > 100 µM
TGI (UO-31 renal): 4.07 µM
TGI (HCT-116 colon): > 100 µM
TGI (OVCAR-8 ovarian): > 100 µM
TGI (MOLT-4 leukemia): > 100 µM
TGI (M14 melanoma): 91.1 µM
TGI (UACC-257 melanoma): 48.3 µM
TGI (HCT-15 colon): > 100 µM

C(CCc1nnc2c(n1)CCCC2)Cc1nnc2c(n1)CCCC2
TGI (KM12 colon): > 100 µM
TGI (SF-295 CNS): > 100 µM
TGI (SF-268 CNS): > 100 µM
TGI (SW-620 colon): > 100 µM
TGI (IGROV1 ovarian): > 100 µM
TGI (HOP-62 NSCLC): > 100 µM
TGI (NCI/ADR-RES ovarian): > 100 µM
TGI (MCF7 breast): > 100 µM
TGI (CCRF-CEM leukemia): > 100 µM
TGI (PC-3 prostate): > 100 µM
TGI (SF-539 CNS): > 100 µM
TGI (OVCAR-5 ovarian): > 100 µM
TGI (COLO 205 colon): > 100 µM
TGI (OVCAR-3 ovarian): > 100 µM
TGI (SNB-75 CNS): > 100 µM
TGI (SK-MEL-28 melanoma): > 100 µM
TGI (SK-MEL-5 melanoma): > 100 µM
TGI (EKVX NSCLC): > 100 µM
TGI (HOP-92 NSCLC): > 100 µM
TGI (UACC-62 melanoma): > 100 µM
TGI (ACHN renal): > 100 µM
TGI (MDA-MB-231 breast): > 100 µM
TGI (NCI-H460 lung): > 100 µM
TGI (RPMI-8226 leukemia): > 100 µM
TGI (NCI-H226 lung): > 100 µM
TGI (MALME-3M melanoma): > 100 µM
TGI (HS 578T breast): > 100 µM
TGI (OVCAR-4 ovarian): > 100 µM
TGI (MDA-N): > 100 µM
TGI (DU-145 prostate): > 100 µM
TGI (SR leukemia): > 100 µM
TGI (BT-549 breast): > 100 µM
TGI (NCI-H522 lung): > 100 µM
TGI (U251 CNS): > 100 µM
TGI (HT29 colon): > 100 µM
TGI (T-47D breast): > 100 µM
TGI (CAKI-1 renal): > 100 µM
TGI (TK-10 renal): > 100 µM
TGI (MDA-MB-435): > 100 µM
TGI (A498 renal): > 100 µM
TGI (SN12C renal): > 100 µM
TGI (A549 NSCLC): > 100 µM
TGI (HL-60(TB) leukemia): > 100 µM
TGI (RXF 393 renal): > 100 µM
TGI (SK-MEL-2 melanoma): > 100 µM
TGI (NCI-H23 lung): > 100 µM
TGI (SNB-19 CNS): > 100 µM
TGI (HCC-2998 colon): > 100 µM
TGI (786-0 renal): > 100 µM
TGI (SK-OV-3 ovarian): > 100 µM
TGI (K-562 leukemia): > 100 µM
TGI (UO-31 renal): > 100 µM
TGI (HCT-116 colon): > 100 µM
TGI (OVCAR-8 ovarian): > 100 µM
TGI (MOLT-4 leukemia): > 100 µM
TGI (M14 melanoma): > 100 µM
TGI (LOX IMVI melanoma): > 100 µM
TGI (HCT-15 colon): > 100 µM
